The source of these data is patent publication US20240182910A1, “DRUG-REGULATABLE TRANSCRIPTION FACTORS” (Senti Biosciences, Inc., priority 2021, published 2024).

Structures are written as SMILES.

One assay deals with AlcR (Emericella nidulans, UniProt P21228). More on the design: key: A, activation; DA, deactivation; DR, derepression. The following applies: AIR; PAIR (OalcA-PhCMVmin); cited from earlier work.
The next assay relates to ArgR-VP16. More on the design: key to Response to inducer: T (transgene transcription): A, activation; DA, deactivation; DR, derepression; key to Response to inducer: TF (transcription factor): B, binding; D, dissociation. The conditions noted are these: ART; PART (OARG-PhCMVmin); cited from earlier work.
The subject of the next assay is E-KRAB. Details: key to Response to inducer: T (transgene transcription): A, activation; DA, deactivation; DR, derepression; key to Response to inducer: TF (transcription factor): B, binding; D, dissociation. The conditions noted are these: E-ON; PETRON8 (PSV40-OETR8); cited from earlier work.
A further assay relates to SCAE-KRAB. More on the design: key to Response to inducer: T (transgene transcription): A, activation; DA, deactivation; DR, derepression; key to Response to inducer: TF (transcription factor): B, binding; D, dissociation. The conditions noted are these: QuoRexE-ON (NOT IF gate); OscbR-OETR8-PhCMVmin; cited from earlier work.
A further assay has as its system ET (E-VP16). More on the design: key to Response to inducer: T (transgene transcription): A, activation; DA, deactivation; DR, derepression; key to Response to inducer: TF (transcription factor): B, binding; D, dissociation. The conditions noted are these: E-OFF; PETR (OETR-PhCMVmin); cited from earlier work.
Another assay concerns tTAPIT3E-KRAB. More on the design: key to Response to inducer: T (transgene transcription): A, activation; DA, deactivation; DR, derepression; key to Response to inducer: TF (transcription factor): B, binding; D, dissociation. The conditions noted are these: TET-OFFPIP-ONE-ON; OtetO7-OPIR3-OETR8-PhCMVmin; cited from earlier work.
Another assay has as its system tTAE-KRAB. Details: key to Response to inducer: T (transgene transcription): A, activation; DA, deactivation; DR, derepression; key to Response to inducer: TF (transcription factor): B, binding; D, dissociation. The conditions noted are these: TET-OFFE-ON (NOT IF gate); OtetO7-OETR8-PhCMVmin; cited from earlier work.
The target in assay [1] is T1, mifepristone-inducible transcription factor (Homo sapiens, UniProt P06401, V660L).
T1 construct: expressed in transfected cells; host or cells: U87-MG reporter cells, lentiviral transduction
The assay can be described thus: Transduction assay: mCherry reporter expression, mifepristone-inducible transcription factor. Type of assay: cell-based. The conditions noted are these: U87-MG reporter cells, cell group E; 0, 1, 100, 1000 or 10000 nM mifepristone; FIG. 4.
Experimental: On day 1, reporter cells were transduced with lentivirus encoding the mifepristone-inducible transcription factor construct.
To assay for mifepristone-regulated transcription modulation, cell group E was thawed and four days later, the cells were split into a 48-well plate and treated with 0 nM, 1 nM, 100 nM, 1000 nM, or 10000 nM mifepristone. Six days after the cells were thawed, cells were trypsinized and then resuspended in FACS buffer plus Sytox Red (fluoresces in APC channel) viability dye. Cell mCherry geometric mean fluorescent intensity (gMFI) was measured at each concentration and normalized to no drug as shown in FIG. 4.

The subject of assay [2] is nicotine-inducible transcription factor. The conditions noted are these: U87MG reporter cells co-transduced with constructs 12 and 13 (cell group G); nicotine 10 uM and 1 uM; flow cytometry day 5; FIG. 2 and FIG. 3.
Experimental: U87MG cells transduced with a 4×ZF10-1 BS_minYBTATA:mCherry vector (referred to as “reporter cells”) were plated at 6e5/cells in a 6 well plate on day 0.
Cannabinoid-inducible transcription factor constructs included a first monomer construct (construct 14) composed of a first anti-CBD VHH (CA-14), a zinc finger protein domain of SEQ ID NO: 1, a nuclear localization signal of SEQ ID NO: 2, a cleavable linker, and a BFP tag, and a second monomer construct (construct 15) composed of a 3×FLAG-tagged nuclear localization signal (NLS) of SEQ ID NO: 2, a VPR transcriptional activation domain, a second anti-CBD VHH that is oligomerizable with the first anti-CBD VHH (DB-21), a cleavable linker, and a GFP tag.
Day 5, flow cytometry was performed, and the cells were gate on GFP/BFP

AlcR, sequence (P21228 whole entry): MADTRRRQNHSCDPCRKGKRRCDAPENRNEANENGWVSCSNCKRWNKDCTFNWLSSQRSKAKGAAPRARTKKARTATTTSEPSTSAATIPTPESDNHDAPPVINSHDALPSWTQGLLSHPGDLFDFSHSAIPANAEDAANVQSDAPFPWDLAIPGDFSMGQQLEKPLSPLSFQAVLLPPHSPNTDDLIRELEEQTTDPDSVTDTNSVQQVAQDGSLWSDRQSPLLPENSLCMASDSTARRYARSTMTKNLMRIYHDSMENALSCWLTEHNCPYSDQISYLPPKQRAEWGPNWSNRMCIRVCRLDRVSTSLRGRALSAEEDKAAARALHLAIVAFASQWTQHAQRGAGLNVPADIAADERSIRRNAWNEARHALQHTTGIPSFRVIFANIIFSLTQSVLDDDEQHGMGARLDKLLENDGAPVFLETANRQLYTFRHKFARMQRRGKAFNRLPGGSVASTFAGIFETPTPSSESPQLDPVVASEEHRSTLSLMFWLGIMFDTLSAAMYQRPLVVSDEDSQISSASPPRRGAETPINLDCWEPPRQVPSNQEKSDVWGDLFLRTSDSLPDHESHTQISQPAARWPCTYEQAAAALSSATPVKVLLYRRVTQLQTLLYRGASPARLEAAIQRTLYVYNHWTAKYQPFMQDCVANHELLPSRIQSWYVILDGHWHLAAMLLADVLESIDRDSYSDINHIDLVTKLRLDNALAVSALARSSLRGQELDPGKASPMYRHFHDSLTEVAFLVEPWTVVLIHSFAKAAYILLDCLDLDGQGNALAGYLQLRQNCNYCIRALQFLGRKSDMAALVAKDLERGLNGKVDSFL
T1 sequence (P06401 with tags, fused parts or gaps V660L): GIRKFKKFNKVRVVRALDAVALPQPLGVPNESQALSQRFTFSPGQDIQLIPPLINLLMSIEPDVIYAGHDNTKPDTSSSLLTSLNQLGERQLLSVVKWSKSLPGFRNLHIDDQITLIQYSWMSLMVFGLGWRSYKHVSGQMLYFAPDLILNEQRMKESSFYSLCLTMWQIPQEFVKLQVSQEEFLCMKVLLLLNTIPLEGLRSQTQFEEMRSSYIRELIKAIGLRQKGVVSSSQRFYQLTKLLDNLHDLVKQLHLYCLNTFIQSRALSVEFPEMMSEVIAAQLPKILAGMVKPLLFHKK

In the case of `CC=O` [Acetaldehyde], the “Response to inducer: T (transgene transcription)” value on AlcR is reported as “A”.

Consider `N=C(N)NCCC[C@H](N)C(=O)O` [Construct 1-Arginine, 1-Arginine], for which, in the assay with ArgR-VP16, the “Response to inducer: T (transgene transcription)” value is “A” and the “Response to inducer: TF (transcription factor)” value is listed as “B”.

Regarding `CC[C@H]1OC(=O)[C@H](C)[C@@H](O[C@H]2C[C@@](C)(OC)[C@@H](O)[C@H](C)O2)[C@H](C)[C@@H](O[C@@H]2O[C@H](C)C[C@H](N(C)C)[C@H]2O)[C@](C)(O)C[C@@H](C)C(=O)[C@H](C)[C@@H](O)[C@]1(C)O` [Erythromycin], the “Response to inducer: T (transgene transcription)” value in the assay on E-KRAB was “DR”; in the assay with SCAE-KRAB, “DR”; with ET (E-VP16) it was “DA”; in the assay with tTAPIT3E-KRAB, “DR”; in the assay on tTAE-KRAB it was “DR”. The “Response to inducer: TF (transcription factor)” value in the assay with E-KRAB, in the assay on SCAE-KRAB, in the assay on ET (E-VP16), in the assay on tTAPIT3E-KRAB and in the assay on tTAE-KRAB was “D” in each case.

As to `CC#C[C@]1(O)CC[C@H]2[C@@H]3CCC4=CC(=O)CCC4=C3[C@@H](c3ccc(N(C)C)cc3)C[C@@]21C` [mifepristone], the “mCherry expression (mCherry gMFI normalized to no drug)” value in assay [1] is given as “induced mCherry expression in the presence of drug in a concentration-dependent manner”.

Regarding `CN1CCCC1c1cccnc1` (stereo not drawn) [nicotine], in assay [2], the “reporter (mCherry) expression: percent of mCherry positive cells and mean fluorescent intensity” value is recorded as “induced concentration-dependent reporter expression”.
